PubChem BioAssay AID248 (DTP/NCI, 2004)
Several values for one entry are separate records, joined by “and”; a condition that tells them apart may be missing. Equal values may be shown once. Toxic doses and inconclusive results are not listed.

Tested on: L1210 leukemia ip in BDF1 mice, survival T/C
Experiment: NCI In Vivo Anticancer Drug Screen. Data for tumor model L1210 Leukemia (intraperitoneal) in B6D2F1 (BDF1) mice
Settings: endpoint: mean survival time, higher = longer survival
Procedure, shortened: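 Mice bearing the transplanted tumor received compound or vehicle. Survival of the treated group was divided by that of the vehicle-treated control group to give the ratio.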

[1] = dose: 50.0 mg/kg/injection, schedule: Q01DX009 (ip), vehicle: other
[2] = dose: 200.0 mg/kg/injection, schedule: Q01DX001 (ip), vehicle: carboxymethylcellulose (CMC)
[3] = dose: 200.0 mg/kg/injection, schedule: Q04DX003 (ip), vehicle: Klucel (hydroxypropylcellulose) (HPC)
[4] = dose: 400.0 mg/kg/injection, schedule: Q01DX001 (ip), vehicle: carboxymethylcellulose (CMC)
[5] = dose: 100.0 mg/kg/injection, schedule: Q01DX009 (ip), vehicle: saline
[6] = dose: 50.0 mg/kg/injection, schedule: Q01DX009 (ip), vehicle: Klucel (hydroxypropylcellulose) (HPC)
[7] = dose: 100.0 mg/kg/injection, schedule: Q01DX001 (ip), vehicle: saline
[8] = dose: 200.0 mg/kg/injection, schedule: Q01DX001 (ip), vehicle: saline
[9] = dose: 400.0 mg/kg/injection, schedule: Q01DX001 (ip), vehicle: saline
[10] = dose: 25.0 mg/kg/injection, schedule: Q01DX009 (ip), vehicle: saline with Tween-80
[11] = dose: 50.0 mg/kg/injection, schedule: Q01DX009 (ip), vehicle: saline with Tween-80
[12] = dose: 50.0 mg/kg/injection, schedule: Q04DX003 (ip), vehicle: saline with Tween-80
[13] = dose: 100.0 mg/kg/injection, schedule: Q01DX009 (ip), vehicle: saline with Tween-80
[14] = dose: 100.0 mg/kg/injection, schedule: Q04DX003 (ip), vehicle: saline with Tween-80
[15] = dose: 200.0 mg/kg/injection, schedule: Q04DX003 (ip), vehicle: saline with Tween-80
[16] = dose: 200.0 mg/kg/injection, schedule: Q01DX009 (ip), vehicle: saline with Tween-80
[17] = dose: 400.0 mg/kg/injection, schedule: Q01DX009 (ip), vehicle: saline with Tween-80
[18] = dose: 100.0 mg/kg/injection, schedule: Q04DX003 (ip), vehicle: saline
[19] = dose: 200.0 mg/kg/injection, schedule: Q01DX009 (ip), vehicle: saline
[20] = dose: 400.0 mg/kg/injection, schedule: Q04DX003 (ip), vehicle: saline with Tween-80

With `CCC/C=C/CC1CC2CC(C1C)C2(C)C` (configuration not stated) the T/C [1] was 97 % of control, the T/C (dose: 100.0 mg/kg/injection, schedule: Q01DX009 (ip), vehicle: other) was 101 % of control and the T/C (dose: 200.0 mg/kg/injection, schedule: Q01DX009 (ip), vehicle: other) was 90 % of control.

For `CCN(CC)C(=O)Nc1ccc([N+](=O)[O-])cc1`, the T/C (dose: 100.0 mg/kg/injection, schedule: Q01DX001 (ip), vehicle: carboxymethylcellulose (CMC)) was 97 % of control, the T/C (dose: 100.0 mg/kg/injection, schedule: Q04DX003 (ip), vehicle: Klucel (hydroxypropylcellulose) (HPC)) was 109 % of control and the T/C [2] was 101 % of control. For the same compound, the T/C [3] was 96 % of control, the T/C [4] was 97 % of control and the T/C (dose: 400.0 mg/kg/injection, schedule: Q04DX003 (ip), vehicle: Klucel (hydroxypropylcellulose) (HPC)) was 107 % of control.

In the case of `C1CCN(NC2=NCCO2)CC1`, the T/C [5] was 95 % of control.

With `CCOC(=O)C1C(=O)C(C(C(=O)OC2CC(C)CCC2C(C)C)N(CCCl)CCCl)C(=O)C(C(=O)OCC)C1c1ccc(O)cc1` (configuration not stated) (tested in a mixture with another compound) the T/C [6] was 93 % of control, the T/C (dose: 100.0 mg/kg/injection, schedule: Q01DX009 (ip), vehicle: Klucel (hydroxypropylcellulose) (HPC)) was 109 % of control and the T/C (dose: 200.0 mg/kg/injection, schedule: Q01DX009 (ip), vehicle: Klucel (hydroxypropylcellulose) (HPC)) was 111 % of control.

`O=C(/C=C\c1ccc([N+](=O)[O-])cc1)OCCCCOC(=O)/C=C/c1ccc([N+](=O)[O-])cc1` was tested, and the T/C (dose: 50.0 mg/kg/injection, schedule: Q01DX001 (ip), vehicle: saline) was 93 % of control, the T/C [7] was 96 % of control and the T/C [8] was 90 % of control. The T/C [9] was 87 % of control.

For `Nc1nc(-c2ccccc2)cs1`, the T/C [10] was 106 % of control, the T/C (dose: 25.0 mg/kg/injection, schedule: Q04DX003 (ip), vehicle: saline with Tween-80) was 100 % of control and the T/C [11] was 108 % of control. For the same compound, the T/C [12] was 92 % of control, the T/C [13] was 106 % of control and the T/C [14] was 92 % of control.

For `CC(=O)N1c2ccccc2Sc2cc(C(O)(C(F)(F)F)C(F)(F)F)ccc21`, the T/C [10] was 95 % of control, the T/C [11] was 95 % of control and the T/C [12] was 95 % of control. The T/C [13] was 95 % of control, the T/C [14] was 91 % of control and the T/C [15] was 91 % of control.

`CC(C)(C)OC(=O)NC(CC(=O)O)C(=O)O` (configuration not stated) was tested, and the T/C [10] was 99 % of control, the T/C [11] was 89 % of control and the T/C [13] was 101 % of control and 117 % of control. The T/C (dose: 100.0 mg/kg/injection, schedule: Q04DX002 (ip), vehicle: Klucel (hydroxypropylcellulose) (HPC)) was 90 % of control, the T/C [16] was 96 % of control and the T/C (dose: 200.0 mg/kg/injection, schedule: Q04DX002 (ip), vehicle: Klucel (hydroxypropylcellulose) (HPC)) was 101 % of control. The T/C [17] was 91 % of control and the T/C (dose: 400.0 mg/kg/injection, schedule: Q04DX002 (ip), vehicle: Klucel (hydroxypropylcellulose) (HPC)) was 101 % of control.

For `COc1cc(C=Nc2cc(Br)cc(Br)c2)ccc1N(CCCl)CCCl`, the T/C (dose: 1.31 mg/kg/injection, schedule: Q01DX009 (ip), vehicle: other) was 113 % of control, the T/C (dose: 2.62 mg/kg/injection, schedule: Q01DX009 (ip), vehicle: other) was 104 % of control and the T/C (dose: 12.5 mg/kg/injection, schedule: Q01DX001 (ip), vehicle: other) was 106 % of control. The T/C (dose: 25.0 mg/kg/injection, schedule: Q01DX001 (ip), vehicle: other) was 120 % of control, the T/C [1] was 124 % of control and the T/C (dose: 118.0 mg/kg/injection, schedule: Q01DX001 (ip), vehicle: carboxymethylcellulose (CMC)) was 123 % of control. For the same compound, the T/C (dose: 177.0 mg/kg/injection, schedule: Q01DX001 (ip), vehicle: carboxymethylcellulose (CMC)) was 94 % of control and 108 % of control, the T/C [2] was 124 % of control and the T/C (dose: 266.0 mg/kg/injection, schedule: Q01DX001 (ip), vehicle: carboxymethylcellulose (CMC)) was 88 % of control. For the same compound, the T/C [4] was 179 % of control.

`Cc1ccc(S(=O)(=O)O)cc1` was tested, and the T/C (dose: 12.5 mg/kg/injection, schedule: Q01DX009 (ip), vehicle: saline) was 101 % of control, the T/C (dose: 25.0 mg/kg/injection, schedule: Q01DX009 (ip), vehicle: saline) was 98 % of control and the T/C (dose: 50.0 mg/kg/injection, schedule: Q01DX009 (ip), vehicle: saline) was 98 % of control. For the same compound, the T/C [5] was 97 % of control, the T/C (dose: 100.0 mg/kg/injection, schedule: Q04DX002 (ip), vehicle: saline) was 97 % of control and the T/C [18] was 102 % of control. For the same compound, the T/C [19] was 96 % of control, the T/C (dose: 200.0 mg/kg/injection, schedule: Q04DX002 (ip), vehicle: saline) was 101 % of control and the T/C (dose: 400.0 mg/kg/injection, schedule: Q04DX002 (ip), vehicle: saline) was 108 % of control.

For `CC12CCC3c4ccc([O-])c([N+]#N)c4CCC3C1CCC2=O` (configuration not stated), the T/C (dose: 25.0 mg/kg/injection, schedule: Q01DX009 (ip), vehicle: Klucel (hydroxypropylcellulose) (HPC)) was 103 % of control and the T/C [6] was 87 % of control.

With `COc1ccccc1/C1=C/CCCCCC1` the T/C (dose: 50.0 mg/kg/injection, schedule: Q01DX009 (ip), vehicle: acetone) was 90 % of control, the T/C (dose: 100.0 mg/kg/injection, schedule: Q01DX009 (ip), vehicle: acetone) was 88 % of control and the T/C (dose: 100.0 mg/kg/injection, schedule: Q04DX003 (ip), vehicle: acetone) was 100 % of control. For the same compound, the T/C (dose: 200.0 mg/kg/injection, schedule: Q01DX009 (ip), vehicle: acetone) was 87 % of control, the T/C (dose: 200.0 mg/kg/injection, schedule: Q04DX003 (ip), vehicle: acetone) was 92 % of control and the T/C (dose: 400.0 mg/kg/injection, schedule: Q04DX003 (ip), vehicle: acetone) was 89 % of control.

`NC(=O)NOCc1cscn1` was tested, and the T/C [7] was 95 % of control, the T/C [8] was 97 % of control and the T/C [9] was 97 % of control.

`CCOC(=O)CCCC1(C)C(C#N)C(=O)NC(=O)C1C#N` (configuration not stated) was tested, and the T/C [5] was 96 % of control, the T/C [18] was 112 % of control and the T/C [19] was 98 % of control. For the same compound, the T/C (dose: 200.0 mg/kg/injection, schedule: Q04DX003 (ip), vehicle: saline) was 102 % of control, the T/C (dose: 400.0 mg/kg/injection, schedule: Q01DX009 (ip), vehicle: saline) was 90 % of control and the T/C (dose: 400.0 mg/kg/injection, schedule: Q04DX003 (ip), vehicle: saline) was 94 % of control.

`COc1ccc(OC)c(NC(=O)NNC(=O)CNC(=O)Nc2cccc([N+](=O)[O-])c2)c1` was tested, and the T/C [13] was 89 % of control, the T/C [16] was 91 % of control and the T/C [17] was 91 % of control.

For `CN(C)C(=O)C1CCC1`, the T/C [13] was 91 % of control, the T/C [14] was 103 % of control and the T/C [16] was 105 % of control. The T/C [15] was 101 % of control, the T/C [17] was 100 % of control and the T/C [20] was 104 % of control.

`O=S(=O)(Oc1cccc(C(F)(F)F)c1)c1cccc(C(F)(F)F)c1` was tested, and the T/C (dose: 6.25 mg/kg/injection, schedule: Q01DX009 (ip), vehicle: saline sonified) was 101 % of control, the T/C (dose: 6.25 mg/kg/injection, schedule: Q04DX003 (ip), vehicle: Klucel (hydroxypropylcellulose) (HPC)) was 103 % of control and the T/C (dose: 12.5 mg/kg/injection, schedule: Q01DX009 (ip), vehicle: saline sonified) was 97 % of control. The T/C (dose: 12.5 mg/kg/injection, schedule: Q04DX003 (ip), vehicle: Klucel (hydroxypropylcellulose) (HPC)) was 109 % of control, the T/C (dose: 25.0 mg/kg/injection, schedule: Q01DX009 (ip), vehicle: saline sonified) was 90 % of control and the T/C (dose: 25.0 mg/kg/injection, schedule: Q04DX003 (ip), vehicle: Klucel (hydroxypropylcellulose) (HPC)) was 117 % of control. The T/C [3] was 86 % of control.

With `O=C1CSCc2c1ccc1ccccc21` the T/C [14] was 106 % of control, the T/C [15] was 100 % of control and the T/C [20] was 108 % of control.
